Values after ≈ are worked out from the molar mass of the structure shown.

Type in all cases: functional
For test [1], the system named is Bacillus subtilis. The experiment in a line: Antibacterial activity against Bacillus subtilis ATCC 6633 after 24 hrs by serial dilution method. Conditions: ATCC 6633, 24 h.
In test [2] the test system is Staphylococcus aureus. The experiment in a line: Antibacterial activity against Staphylococcus aureus ATCC 25923 after 24 hrs by serial dilution method. Conditions: ATCC 25923, 24 h.
For test [3], the system named is Escherichia coli. The experiment in a line: Antibacterial activity against Escherichia coli ATCC 23556 after 24 hrs by serial dilution method. Conditions: ATCC 23556, 24 h.
The test system of test [4] is Pseudomonas aeruginosa. The experiment in a line: Antibacterial activity against Pseudomonas aeruginosa ATCC 10145 after 24 hrs by serial dilution method. Conditions: ATCC 10145, 24 h.
In test [5] the test system is Candida albicans. Description: Antifungal activity against Candida albicans after 48 hrs by serial dilution method.
Test [6] concerns Nakaseomyces glabratus. The experiment in a line: Antifungal activity against Candida glabrata after 48 hrs by serial dilution method.
The test system of test [7] is Pichia kudriavzevii. Description: Antifungal activity against Candida krusei ATCC 6258 after 48 hrs by serial dilution method. As to conditions: ATCC 6258, 48 h.

A word on the MIC: it is the least concentration at which growth counts as inhibited. As to `O=C(Nc1ccc2oc(Cc3ccc(Cl)cc3)nc2c1)c1ccccc1`, the MIC in test [1] amounted to 50 mg/L (≈ 138 µM); in test [2] it was 200 mg/L (≈ 551 µM); in test [3], 100 mg/L (≈ 276 µM); in test [4] it was 100 mg/L (≈ 276 µM); in test [5] it was 50 mg/L (≈ 138 µM); in test [6], 25 mg/L (≈ 68.9 µM). It took 25 mg/L (≈ 68.9 µM) to inhibit growth in test [7] (MIC).

For the molecule `O=C(CSc1ccccc1)Nc1ccc2oc(Cc3ccc(Cl)cc3)nc2c1`, the MIC is 100 mg/L (≈ 245 µM) in test [1]; 100 mg/L (≈ 245 µM) in test [2]; 100 mg/L (≈ 245 µM) in test [3]; 100 mg/L (≈ 245 µM) in test [4]; 50 mg/L (≈ 122 µM) in test [5]; 50 mg/L (≈ 122 µM) in test [6]. Besides, in test [7], inhibition of growth (MIC) required 25 mg/L (≈ 61.1 µM).

As to `O=C(Nc1ccc2oc(Cc3ccc(Cl)cc3)nc2c1)c1ccc(Br)cc1`, the MIC in test [1] is 50 mg/L (≈ 113 µM); in test [2] it was 50 mg/L (≈ 113 µM); in test [3], 50 mg/L (≈ 113 µM); in test [4], 50 mg/L (≈ 113 µM); in test [5], 50 mg/L (≈ 113 µM); in test [6], 100 mg/L (≈ 226 µM). This molecule also showed a minimal inhibitory concentration (MIC) in test [7] of 100 mg/L (≈ 226 µM).

For the molecule `O=C(O)c1cn(C2CC2)c2cc(N3CCNCC3)c(F)cc2c1=O` [CIPROFLOXACIN], the minimal inhibitory concentration (MIC) in test [1] was 1.56 mg/L (≈ 4.71 µM); in test [2], 3.12 mg/L (≈ 9.42 µM); in test [4], 0.78 mg/L (≈ 2.35 µM).

Regarding `O=C(Nc1ccc2oc(Cc3ccccc3)nc2c1)c1ccc(Cl)c([N+](=O)[O-])c1`, the MIC came out at 25 mg/L (≈ 61.3 µM) in test [1]; 50 mg/L (≈ 123 µM) in test [2]; 50 mg/L (≈ 123 µM) in test [3]; 25 mg/L (≈ 61.3 µM) in test [4]; 12.5 mg/L (≈ 30.7 µM) in test [5]; 12.5 mg/L (≈ 30.7 µM) in test [6]. This molecule also had an MIC in test [7] of 12.5 mg/L (≈ 30.7 µM).

In the case of `O=C(Nc1ccc2oc(Cc3ccccc3)nc2c1)c1ccc(F)cc1`, the minimum inhibitory concentration (MIC) in test [1] is 25 mg/L (≈ 72.2 µM); in test [2] it was 50 mg/L (≈ 144 µM); in test [3], 50 mg/L (≈ 144 µM); in test [4] it was 25 mg/L (≈ 72.2 µM); in test [5], 12.5 mg/L (≈ 36.1 µM); in test [6] it was 25 mg/L (≈ 72.2 µM). In test [7], the MIC was found to be 50 mg/L (≈ 144 µM).

Regarding `O=C(Nc1ccc2oc(Cc3ccc(Cl)cc3)nc2c1)c1ccc(Cl)c([N+](=O)[O-])c1`, the minimal inhibitory concentration (MIC) in test [1] came to 50 mg/L (≈ 113 µM); in test [2], 50 mg/L (≈ 113 µM); in test [3], 50 mg/L (≈ 113 µM); in test [4] it was 50 mg/L (≈ 113 µM); in test [5], 25 mg/L (≈ 56.5 µM); in test [6], 25 mg/L (≈ 56.5 µM). In test [7], this molecule gave an MIC of 25 mg/L (≈ 56.5 µM).

For the molecule `O=C(Cc1ccc(Cl)cc1)Nc1ccc2oc(Cc3ccccc3)nc2c1`, the MIC in test [1] came to 100 mg/L (≈ 265 µM); in test [2], 100 mg/L (≈ 265 µM); in test [3], 50 mg/L (≈ 133 µM); in test [4], 50 mg/L (≈ 133 µM); in test [5], 25 mg/L (≈ 66.3 µM); in test [6], 25 mg/L (≈ 66.3 µM). Besides, in test [7], the MIC turned out to be 25 mg/L (≈ 66.3 µM).

For the molecule `CC1(C)S[C@@H]2[C@H](NC(=O)[C@H](N)c3ccc(O)cc3)C(=O)N2[C@H]1C(=O)O` [AMOXICILLIN], the MIC in test [1] is 1.56 mg/L (≈ 4.27 µM); in test [2] it was 1.56 mg/L (≈ 4.27 µM); in test [3] it was 3.12 mg/L (≈ 8.54 µM); in test [4] it was greater than 200 mg/L.

As for `O=C(Cc1ccc(F)cc1)Nc1ccc2oc(Cc3ccccc3)nc2c1`, the MIC in test [1] was 25 mg/L (≈ 69.4 µM); in test [2], 50 mg/L (≈ 139 µM); in test [3], 25 mg/L (≈ 69.4 µM); in test [4] it was 25 mg/L (≈ 69.4 µM); in test [5] it was 50 mg/L (≈ 139 µM); in test [6], 12.5 mg/L (≈ 34.7 µM). For the same molecule, in test [7], the MIC was determined as 12.5 mg/L (≈ 34.7 µM).

With `Clc1cc(Cl)c(OCC#CI)cc1Cl` [HALOPROGIN], the MIC in test [5] is 3.12 mg/L (≈ 8.63 µM).

For `CN(C)[C@@H]1C(O)=C(C(N)=O)C(=O)[C@@]2(O)C(O)=C3C(=O)c4c(O)cccc4[C@@](C)(O)[C@H]3C[C@@H]12` [TETRACYCLINE], the MIC in test [1] was found to be 1.56 mg/L (≈ 3.51 µM); in test [2], 1.56 mg/L (≈ 3.51 µM); in test [3], 3.12 mg/L (≈ 7.02 µM); in test [4] it was 50 mg/L (≈ 113 µM).

As for `CC1(C)S[C@@H]2[C@H](NC(=O)[C@H](N)c3ccccc3)C(=O)N2[C@H]1C(=O)O` [AMPICILLIN], the MIC in test [1] was 1.56 mg/L (≈ 4.46 µM); in test [2], 1.56 mg/L (≈ 4.46 µM); in test [3], 12.5 mg/L (≈ 35.8 µM); in test [4], greater than 200 mg/L.

For the molecule `CC(C)(C)c1ccc(C(=O)Nc2ccc3oc(Cc4ccccc4)nc3c2)cc1`, the MIC in test [1] stood at 50 mg/L (≈ 130 µM); in test [2] it was 200 mg/L (≈ 520 µM); in test [3], 25 mg/L (≈ 65 µM); in test [4], 25 mg/L (≈ 65 µM); in test [5] it was 50 mg/L (≈ 130 µM); in test [6], 25 mg/L (≈ 65 µM). The molecule further registered an MIC in test [7] of 25 mg/L (≈ 65 µM).

The molecule `Clc1ccccc1C(c1ccccc1)(c1ccccc1)n1ccnc1` [CLOTRIMAZOLE] returned an MIC in test [5] of 6.25 mg/L (≈ 18.1 µM).

Turning to `Clc1ccc(COC(Cn2ccnc2)c2ccc(Cl)cc2Cl)c(Cl)c1` (stereo not drawn) [MICONAZOLE], the values for the MIC in test [5], in test [6] and in test [7] were 3.12 mg/L (≈ 7.5 µM), 3.12 mg/L (≈ 7.5 µM) and 1.56 mg/L (≈ 3.75 µM), respectively.

For the origin of these results see ChEMBL document CHEMBL1147878, “Synthesis and in vitro antimicrobial activity of new 2-[p-substituted-benzyl]-5-[substituted-carbonylamino]benzoxazoles” (2007).
